Experimental data taken from ChEMBL document CHEMBL1133146, “Potent nonpeptide endothelin antagonists: synthesis and structure-activity relationships of pyrazole-5-carboxylic acids” (Bioorg Med Chem Lett, 2000).

Assays:
Endothelin-1 receptor = target: T1, Endothelin-1 receptor (Rattus norvegicus, UniProt P26684); test: In vitro binding affinity to endothelin A receptor in rat heart ventricles
T1 sequence (P26684 whole entry): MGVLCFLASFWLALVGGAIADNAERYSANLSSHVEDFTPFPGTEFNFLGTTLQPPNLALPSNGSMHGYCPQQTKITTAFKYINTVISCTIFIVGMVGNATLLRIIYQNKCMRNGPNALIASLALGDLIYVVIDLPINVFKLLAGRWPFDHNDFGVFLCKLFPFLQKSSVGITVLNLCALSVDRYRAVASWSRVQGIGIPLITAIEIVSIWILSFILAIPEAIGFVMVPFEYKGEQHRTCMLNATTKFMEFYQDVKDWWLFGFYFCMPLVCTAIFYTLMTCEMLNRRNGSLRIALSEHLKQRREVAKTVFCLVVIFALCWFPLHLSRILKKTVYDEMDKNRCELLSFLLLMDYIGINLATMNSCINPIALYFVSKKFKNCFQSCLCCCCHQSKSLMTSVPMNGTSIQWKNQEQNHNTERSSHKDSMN

[1] = target: T2, Endothelin receptor type B (Rattus norvegicus, UniProt P21451); test: In vitro binding affinity to endothelin B receptor in rat cerebellum; assay type: tissue-based
T2 sequence (P21451 whole entry): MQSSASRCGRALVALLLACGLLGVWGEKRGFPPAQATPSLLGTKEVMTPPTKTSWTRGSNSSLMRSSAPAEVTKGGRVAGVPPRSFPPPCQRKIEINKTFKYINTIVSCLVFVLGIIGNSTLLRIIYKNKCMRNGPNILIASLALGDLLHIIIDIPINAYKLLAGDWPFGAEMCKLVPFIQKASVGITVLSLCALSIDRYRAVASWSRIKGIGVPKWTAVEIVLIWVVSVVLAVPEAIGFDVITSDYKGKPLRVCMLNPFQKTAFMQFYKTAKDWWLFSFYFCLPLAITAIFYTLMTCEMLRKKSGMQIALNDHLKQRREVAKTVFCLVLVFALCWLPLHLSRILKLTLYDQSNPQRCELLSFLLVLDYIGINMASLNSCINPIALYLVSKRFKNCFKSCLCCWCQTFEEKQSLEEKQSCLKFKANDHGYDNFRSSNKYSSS

[2] = system: Endothelin receptor ET-A/ET-B (Rattus norvegicus); test: Ratio of ETA / ETB was determined; 22/1
[3] = system: Endothelin receptor ET-A/ET-B (Rattus norvegicus); test: Ratio of ETA / ETB was determined; 1/7

Structure (SMILES) | IC50 (Endothelin-1 receptor) | IC50 [1] | Ratio [2] | Ratio [3]
O=C(O)c1c(Cc2cc3c(cc2Cl)OCO3)c(-c2cccnc2)nn1CC1CCCCC1 | 17.8 nM | 6.3 nM |  | 
COc1ccc(Cn2nc(-c3ccccc3)c(Cc3cc4c(cc3Cl)OCO4)c2C(=O)O)c(OCC(=O)O)c1 | 89 nM | 4 nM | 22 | 
O=C(O)c1c(Cc2cc3c(cc2Cl)OCO3)c(-c2ccccc2)nn1CC1CCCCC1 | 3.6 nM | 2.6 nM |  | 
O=C(O)COc1ccccc1Cn1nc(-c2ccccc2)c(Cc2cc3c(cc2Cl)OCO3)c1C(=O)O | 59 nM | 3.3 nM |  | 
O=C(O)c1c(Cc2cc3c(cc2Cl)OCO3)c(-c2cccs2)nn1CC1CCC(C(=O)O)CC1 (stereo not drawn) | 0.81 nM | 825 nM |  | 
O=C(O)c1c(Cc2cc3c(cc2Cl)OCO3)c(-c2ccccc2)nn1CC12CC3CC(CC(C3)C1)C2 | 3.4 nM | 4.9 nM |  | 
CCC(CC)Cn1nc(-c2ccccc2)c(Cc2cc3c(cc2Cl)OCO3)c1C(=O)O | 15 nM | 31 nM |  | 
O=C(O)c1c(Cc2cc3c(cc2Cl)OCO3)c(-c2ccco2)nn1CC1CCCCC1 | 1.3 nM | 9.8 nM |  | 
O=C(O)c1c(Cc2cc3c(cc2Cl)OCO3)c(-c2cccs2)nn1CC1CCCCC1 | 1.1 nM | 1.7 nM |  | 
O=C(O)c1c(Cc2cc3c(cc2Cl)OCO3)c(-c2ccccc2)nn1CC1CCCC(C(=O)O)C1 (stereo not drawn) | 2.5 nM | 14.8 nM |  | 
COc1cc(Cn2nc(-c3ccccc3)c(Cc3cc4c(cc3Cl)OCO4)c2C(=O)O)cc(OC)c1 | 28 nM | 9.7 nM |  | 
O=C(O)c1c(Cc2cc3c(cc2Cl)OCO3)c(-c2ccccc2)nn1C1CCCCC1 | 226 nM | 131 nM |  | 
O=C(O)c1cc(Cn2nc(-c3ccccc3)c(Cc3cc4c(cc3Cl)OCO4)c2C(=O)O)on1 | 79 nM | 440 nM |  | 
O=C(O)c1c(Cc2cc3c(cc2Cl)OCO3)c(-c2ccccc2)nn1CC1OCCO1 | 70 nM | 953 nM |  | 
COc1ccc(Cn2nc(-c3cccs3)c(Cc3cc4c(cc3Cl)OCO4)c2C(=O)O)c(OCC(=O)O)c1 | 14.9 nM | 8.6 nM |  | 
O=C(O)c1c(Cc2cc3c(cc2Cl)OCO3)c(-c2ccccc2)nn1Cc1ccc(Cl)c(Cl)c1 | 34 nM | 26 nM |  | 
O=C(O)c1c(Cc2cc3c(cc2Cl)OCO3)c(-c2ccccc2)nn1CC1CCC(C(=O)O)CC1 (stereo not drawn) | 4.9 nM | 810 nM |  | 
O=C(O)c1c(Cc2cc3c(cc2Cl)OCO3)c(-c2ccsc2)nn1CC1CCCCC1 | 1.1 nM | 3.2 nM |  | 
O=C(O)c1c(Cc2cc3c(cc2Cl)OCO3)c(-c2ccccc2)nn1Cc1cccc(Cl)c1 | 17 nM | 11 nM |  | 
O=C(O)COc1ccccc1Cn1nc(-c2cccs2)c(Cc2cc3c(cc2Cl)OCO3)c1C(=O)O | 28.3 nM | 4.6 nM |  | 
O=C(O)c1cc2c(c(Cn3nc(-c4ccccc4)c(Cc4cc5c(cc4Cl)OCO5)c3C(=O)O)c1)OCOC2 | 2.5 nM | 44 nM |  | 
COc1ccc(-c2nn(CC3CCCCC3)c(C(=O)O)c2Cc2cc3c(cc2Cl)OCO3)cc1 |  | 178 nM |  | 
O=C(O)COC1CCCCC1Cn1nc(-c2ccccc2)c(Cc2cc3c(cc2Cl)OCO3)c1C(=O)O (stereo not drawn) | 20.5 nM | 3.2 nM |  | 
O=C(O)c1c(Cc2cc3c(cc2Cl)OCO3)c(-c2cccs2)nn1CC1CCCC(C(=O)O)C1 (stereo not drawn) | 1.3 nM | 9.9 nM |  | 7
O=C(O)c1ccc(Cn2nc(-c3ccccc3)c(Cc3cc4c(cc3Cl)OCO4)c2C(=O)O)cc1 | 11 nM | 2040 nM |  | 
O=C(O)c1c(Cc2cc3c(cc2Cl)OCO3)c(-c2ccccn2)nn1CC1CCCCC1 | 4.7 nM | 3.4 nM |  | 
